Results published in patent US20260284138A1, “METHODS OF MODULATING THE EPITHELIAL-MESENCHYMAL TRANSITION” (RS Oncology, LLC, priority 2023, published 2026).

Legend:
PRX3 = PRX3 crosslinking by reducing SDS-PAGE and western blot; assay type: cell-based, human
From the text: PRX3 is the primary mitochondrial peroxidase required for H2O2 clearance from the mitochondria induced by metabolic, tumorigenic, and drug treatment inputs. During the metabolism of H2O2, PRX3 forms an intramolecular disulfide bond that orients the second active site for TS-dependent covalent crosslinking, inactivating the protein leading to increased oxidative stress and tumor cell death.
(§1) Erastin potentiates PRX3 crosslinking and ROS generation by TS. FIG. 10A show Western blot from HM cells treated with TS (1 μM), erastin (ER, 2.5 μM) or TS+ER for 24 hours. Samples were run under reducing conditions by SDS-PAGE. FIG. 10B show quantification of PRX3 dimer (TS-crosslink) to PRX3 monomer (unmodified PRX3) from protein western blots as in A (n=2 biological replicates). FIG. 10C show ROS levels in cells treated with TS, ER, or TS+ER for 24 hours (n=2 biological replicates, 3 technical replicates). FIG. 10D show protein western blot of cells cultured in media+/−cystine and treated with TS or ER. PRX3 crosslinking by TS is increased in cells cultured in cystine free (−) media.

HM cells [1] = assay: ROS levels in treated cells; assay type: cell-based, human; conditions: ER or TS+ER, 24 hours
Description: as §1

HM-TSR cells = assay: Cell viability assay of TS-resistant HM-TSR cells; assay type: cell-based, human; conditions: TS+ER 48 hours
Description: TS-resistant cells over-express SLC7A11 and are re-sensitized to TS by Erastin (ER). HM cells were dosed with TS by repetitive drug treatment with a short 24-48 hr recovery period. […] Development of a drug-tolerant cell line with tolerance at […] after 8 months. […] The shift in sensitivity of the HM-TSR-TS line to the HM-TSR-TS/ER line.

HM cells [2] = assay: Cell viability assay of HM cells; assay type: cell-based, human
Description: (§2) FIG. 8A show BAP1 protein expression in immortalized mesothelial (LP9), pleural Meso (HM, MI), and peritoneal Meso (Pet-Gar) cell lines. […] FIG. 8B show EC50 values for TS in normal and MM cell lines (*p<0.05, **p<0.01, ***p<0.001, ****p <0.0001, n=4 biological replicates) FIG. 8C show protein western blots of BAP1 and GAPDH in HM scramble control (SCR) and BAP1 siRNA expressing (siBAP1) cells. FIG. 8D show cell viability curves of cells treated with TS 48 hours (n=3).
ZSS>10 indicates synergy between the two compounds.
TS synergy with ER is independent of ferrostatin sensitive MOA.
Knockdown of SLC7A11 potentiates TS activity. […] PRX3 crosslinking is increased in the SLC7A11 KD samples.

[3] = tested on: human biphasic mesothelioma cell lines; assay: RNA-Seq / RT-qPCR gene expression in mesothelioma cells treated with TS; assay type: cell-based
Description: Described herein are methods to evaluate changes in gene expression in malignant mesothelioma cells (H-meso cell line) treated with thiostrepton (HM-TS) for 16 hrs and compare to HM-TSR (TS_tolerant cells) grown in the presence of […] TS for several weeks. Biological triplicates were generated, RNA extracted, and RNA integrity evaluated. Cell lysates and cDNA were evaluated for known gene changes by RT-qPCR prior to library builds. Libraries were generated using the SMARTer® Stranded RNA-Seq Kit HT from Takara, pooled and analyzed on the Illumina HiSeq 1500 using a rapid run dual lane SE sequencing flow cell. Each library yielded an average of […] mapped reads.
Spatial multiregional sampling of adjacent, intra-tumour E (7) vs S (12) regions from 7 patients with bi-phasic mesothelioma was followed by whole exome, transcriptome and 100-plex immunofluorescence analysis (employing cytokeratin-based cell segmentation). Machine learning (random forests) was employed to infer E to S evolutionary trajectories at the genomic, transcriptomic and protein levels. Biphasic human mesothelioma cells were treated with the PRX3 inhibitor RSO-021 (thiostrepton) and gene-expression changes were evaluated by RT-qPCR.
E and S transition requires Mitochondrial peroxiredoxin 3 (PRX3). […] EMT, hypoxia and glycolysis associated transcription were reduced in RSO-021 treated cells (FIG. 4B). […] Further, MAPK13 (p38) expression is increased in TS treated cells (FIG. 4F). p38 negatively regulates TEAD signaling while TEAD promotes EMT and tumorigenesis. […] TGFb is a master regulator of EMT. VGLL4 inhibits TEAD transcription (FIG. 4H). […] Mesothelin (MSLN) is exclusively expressed in epithelioid MM (FIG. 5A). TS resistant cells increase MSLN expression, indicating a switch to an epithelioid phenotype. EMT is a primary driver in the Epithelioid to sarcomatoid transition (FIG. 5B).

BAP1 = BAP1 protein expression by western blot; assay type: cell-based, human; conditions: TS 4 μM; LP9, HM, MI, Pet-Gar cell lines
Description: as §2

[4] = tested on: patient derived explants (PDEs); assay: Gene set enrichment analysis of patient derived explants treated with TS; assay type: cell-based, human; conditions: PDEs treated with 10 μM of TS vs untreated
From the text: Mesothelioma, a lethal cancer associated with asbestos exposure, lacks effective drug therapy particularly in the relapsed treatment setting. Epithelial-to-mesenchymal transition (EMT) confers an aggressive sarcomatoid phenotype capable of invasion, metastasis, and drug resistance. Pharmacological targeting of EMT could favorably alter the progression and treatment of mesothelioma. Mesothelioma cells rely on buffering of mitochondrial oxidative stress through the expression and activity of mitochondrial peroxiredoxin 3 (PRX3), which is covalently inactivated by the inhibitor RSO-021 (Thiostrepton, TS). To better understand the pharmacodynamics of TS, transcriptomic profiles of drug sensitive and resistant biphasic mesothelioma cell lines were generated. […] Lastly, downregulation of EMT by TS was determined in a cohort of TS treated mesothelioma surgical explants. In summary, PRX3 is a clinically actionable drug target, inhibition of which correlates with EMT modulation.

[5] = tested on: cytokine levels in pleural effusion; assay: Phase 1/2 clinical trial: cytokine levels in pleural effusion by ELISA; assay type: in vivo, human; conditions: pleural effusion pre- and post-treatment, weekly intrapleural administration
From the text: FIGS. 7A-7B show administration of RSO-021 and effect on cytokine levels. […] Prior to each dose patients will have pleural effusion drained to dryness per standard of care. After each administration, the IPC is secured until next RSO-021 dosing time point. […] Absolute values as determined following ELISA are shown from 7 patients enrolled on the trial.
RSO-021 is a PRX3 inhibitor that was investigated in a first-in-human phase ½ clinical trial, recruiting patients with malignant pleural effusion (MPE) arising from mesothelioma or other solid tumors. Mesothelioma cells rely on buffering of mitochondrial oxidative stress through the expression and activity of mitochondrial PRX3, which is covalently inactivated by RSO-021. Inactivation of PRX3 by RSO-021 leads to increased oxidative stress and tumor cell death. RSO-021 may be administered weekly via an intrapleural catheter. Cytokine levels in pleural effusion drainages were measured by ELISA assays. Tumor explants were grown following surgical resection of mesothelioma tumors. RNA sequencing of MM cell lines was conducted. […] RNA sequencing of cells derived from pre-and post-treated MPE aims to identify RSO-021 induced transcriptional changes and their association with clinical activity. […]

[6] = Preclinical animal studies, tolerability; assay type: in vivo
From the text: (§3) RSO-021 is a PRX3 inhibitor that inactivates PRX3 through direct covalent adduction of active site cysteine residues, in turn, inducing oxidative stress to levels incompatible with tumor cell survival.

mitochondrial PRX3 = assay: Preclinical PRX3 inhibition in transformed cells; assay type: cell-based
From the text: as §3

CCOc1ccccc1-n1c(C(C)N2CCN(C(=O)COc3ccc(Cl)cc3)CC2)nc2ccccc2c1=O (stereo not shown) [Erastin, erastin]
effect on PRX3 crosslinking by TS (PRX3; HM cells, TS 1 μM, erastin 2.5 μM, 24 hours): potentiates | effect on ROS generation by TS (HM cells [1]): potentiates | sensitivity of TS-resistant cells to TS (HM-TSR cells): re-sensitized

CCOC(=O)c1ccc(NC2CCCCC2)c(N)c1 [Fer-1, Ferrostatin]
effect on PRX3 crosslinking by TS or TS+ER (PRX3; cells treated +/- Fer-1, FIG. 11C): does not alter | effect on TS/ER cytotoxic synergy (HM cells [2]; 48 hours): does not block | effect on ER cytotoxicity (HM cells [2]; 48 hours, FIG. 11A): blocks

C=C(NC(=O)C(=C)NC(=O)c1csc(C2=N[C@@H]3c4csc(n4)[C@H]4NC(=O)c5csc(n5)[C@H]([C@](C)(O)[C@@H](C)O)NC(=O)[C@H]5CSC(=N5)/C(=C/C)NC(=O)[C@H]([C@@H](C)O)NC(=O)c5csc(n5)[C@]3(CC2)NC(=O)[C@H](C)NC(=O)C(=C)NC(=O)[C@H](C)NC(=O)[C@H]([C@@H](C)CC)N[C@@H]2C=Cc3c([C@H](C)O)cc(nc3[C@H]2O)C(=O)O[C@@H]4C)n1)C(N)=O [TS, Thiostrepton]
EMT, hypoxia and glycolysis associated transcription ([3]; GSEA, treated vs control cells, FIG. 4B): reduced | VISTA expression ([3]; RSO-021 treated cells, FIG. 4D): upregulated | MAPK13 (p38) expression ([3]; TS treated cells, FIG. 4F): increased | TGFb1 and TGFb2 expression ([3]; TS treated cells, FIG. 4G): downregulated | Additional TEAD targets EGFR, DKK1, WNT5B, SLC7A5, and WNT5A ([3]; TS treatment, FIG. 4I): downregulated | TEAD target genes, TGF-β and EMT associated genes including CDH2 ([3]; biphasic mesothelioma cells, FIG. 4A): downregulated | mesothelin (MSLN) expression ([3]; biphasic mesothelioma cells, FIG. 4A/4D): upregulated | ROS response and apoptosis signaling ([3]; differential transcriptomic analysis): upregulation | expression of mesothelioma specific EMT genes Col5A, mesothelin, and VISTA ([3]; transcriptomic profiles): altered expression | PRX3 crosslinking (PRX3; SLC7A11 KD samples, FIG. 12C): increased | PRX3 crosslinking by TS (PRX3; cells cultured in cystine free (−) media): increased | modified PRX3 (PRX3-TS) (PRX3; reducing SDS-PAGE and western blotting): dose-dependent irreversible increase | TS activity in relation to BAP1 expression (HM cells [2]; BAP1 siRNA vs scramble, TS 48 hours): independent of BAP1 expression | TS activity on knockdown of SLC7A11 (HM cells [2]; HM cells, SLC7A11 siRNA): potentiates | BAP1 protein expression (BAP1): does not alter | epithelial mesenchymal transition genes [4]: downregulated | cytokine levels including Resistin, IL-8 and IL-6 [5]: significant changes | tolerability [6]: well-tolerated | selectivity of mitochondrial PRX3 inhibition (mitochondrial PRX3): selectively inhibits
